Data on seven molecules can be found in ChEMBL document CHEMBL3425490, “Activity of lipo-cyclic γ-AApeptides against biofilms of Staphylococcus epidermidis and Pseudomonas aeruginosa” (Bioorg Med Chem Lett, 2015).

Data set [1] has as its system Staphylococcus epidermidis. The data set can be described thus: Bactericidal activity against methicillin-resistant Staphylococcus epidermidis ATCC 35984 assessed as decrease in log10CFU/ml at 12.5 to 50 ug/ml incubated for 6 hrs followed by plating measured after 24 hrs relative to control. The settings on record: for Activity: RP62A. The format is functional, RP62A.

The subject of data set [2] is Staphylococcus epidermidis. The data set can be described thus: Inhibition of biofilm formation of methicillin-resistant Staphylococcus epidermidis ATCC 35984 at 6.25 to 12.56 after 24 hrs by crystal violet staining-based assay relative to control. It counts as functional, RP62A.
Data set [3] relates to Pseudomonas aeruginosa. The data set can be described thus: Induction of pre-existing Pseudomonas aeruginosa ATCC 27853 biofilm detachment after 24 hrs by crystal violet staining-based assay relative to control. The format is functional. On the set-up: concentration or dose not given beside the values.
In data set [4] the test system is Pseudomonas aeruginosa. Kind of data set: Inhibition of biofilm formation of Pseudomonas aeruginosa ATCC 27853 at 6.25 to 12.56 after 24 hrs by crystal violet staining-based assay relative to control. The format is functional.
Data set [5] has as its system Staphylococcus epidermidis. Kind of data set: Antibacterial activity against methicillin-resistant Staphylococcus epidermidis ATCC 35984 after 18 hrs by broth microdilution method. As to conditions: RP62A. The format is functional.
The subject of data set [6] is Pseudomonas aeruginosa. Kind of data set: Antibacterial activity against Pseudomonas aeruginosa ATCC 27853 after 18 hrs by broth microdilution method. The format is functional. The settings on record: ATCC 27853, 18 h.
Data set [7] is described as follows: Hemolytic activity in human RBC after 1 hr. It counts as ADME, cell-based, Erythrocyte. The settings on record: red blood cells (RBC).
Data set [8] deals with Staphylococcus epidermidis. Kind of data set: Induction of pre-existing methicillin-resistant Staphylococcus epidermidis ATCC 35984 biofilm detachment after 24 hrs by crystal violet staining-based assay relative to control. It counts as functional, RP62A. On the set-up: concentration or dose not given beside the values.
Data set [9] deals with Pseudomonas aeruginosa. Kind of data set: Bactericidal activity against Pseudomonas aeruginosa ATCC 27853 assessed as decrease in log10CFU/ml at 12.5 to 50 ug/ml incubated for 6 hrs followed by plating measured after 24 hrs relative to control. The format is functional.
In data set [10] the test system is Pseudomonas aeruginosa. The data set can be described thus: Inhibition of biofilm formation of Pseudomonas aeruginosa ATCC 27853 after 24 hrs by crystal violet staining-based assay. The format is functional.
For data set [11], the system named is Staphylococcus epidermidis. Kind of data set: Inhibition of biofilm formation of methicillin-resistant Staphylococcus epidermidis ATCC 35984 after 24 hrs by crystal violet staining-based assay relative to control. It counts as functional, RP62A.
Data set [12] has as its system Staphylococcus epidermidis. Kind of data set: microbe, parasite or virus in culture. As to conditions: RP62A.
Description: Antibacterial activity against oxacillin-resistant Staphylococcus epidermidis ATCC 35984
For data set [13], the system named is Pseudomonas aeruginosa. Kind of data set: microbe, parasite or virus in culture. As to conditions: 8545.
Description: Antibacterial activity against Pseudomonas aeruginosa 8545 by macrobroth dilution method
The subject of data set [14] is Pseudomonas aeruginosa. Kind of data set: microbe, parasite or virus in culture. The settings on record: 5761.
Description: Antibacterial activity against Pseudomonas aeruginosa 5761 by macrobroth dilution method
Data set [15] has as its system Staphylococcus epidermidis. Kind of data set: microbe, parasite or virus in culture. The settings on record: RP62A. This is another data set of the same source.
Description: Antibacterial activity against oxacillin-susceptible Staphylococcus epidermidis ATCC 35984
For data set [16], the system named is Pseudomonas aeruginosa. Kind of data set: microbe, parasite or virus in culture. The settings on record: 11683.
Description: Antibacterial activity against Pseudomonas aeruginosa 11683 by macrobroth dilution method

Each structure is given as a SMILES string. ≈ marks a conversion by molar mass, not a printed value. Calls of active or inactive are those of the source. The rule behind the calls is not given here.

On to `CCCCCCCCCCCCCCCC(=O)N(CC(N)=O)C[C@H](CCCCN)NC(=O)CN1C[C@H](Cc2ccccc2)NC(=O)CN(C(=O)CCCN)C[C@H](Cc2ccccc2)NC(=O)CN(C(=O)CCCN)C[C@H](Cc2ccccc2)NC(=O)CN(C(=O)CCCN)C[C@H](Cc2ccccc2)NC(=O)CCC1=O`, for which the deltalog10CFU in data set [1] is 8; in the data set with Pseudomonas aeruginosa [9], 6. Further, the “inhibition (INH)” value is listed as 70% in data set [2] and 80% in the data set with Pseudomonas aeruginosa [4]. The values for the Activity (with Pseudomonas aeruginosa [3]; in [8]) were 50% and 30%, respectively. Also, the figures for the MIC (in data set [5]; against Pseudomonas aeruginosa [6]) were 0.6 µM (≈ 0.915 µg/mL) and 3 µM (≈ 4.58 µg/mL), respectively. Further, the HC50 at 1 h in data set [7] is 65 µM.
Consider `CCCCCCCCCCCCCCCC(=O)N(CC(N)=O)C[C@H](CCCCN)NC(=O)CN1C[C@H](Cc2ccccc2)NC(=O)CN(C(=O)CCc2ccccc2)C[C@H](CCCCN)NC(=O)CN(C(=O)CCc2ccccc2)C[C@H](CCCCN)NC(=O)CN(C(=O)CCc2ccccc2)C[C@H](CCCCN)NC(=O)CCC1=O`, for which the results for the “inhibition (INH)” value (in the data set on Pseudomonas aeruginosa [10]; in [11]) were 60% and 40%, respectively. Also, the Activity is recorded as 60% in the data set on Pseudomonas aeruginosa [3] and 10% in data set [8]. Also, the results for the MIC (in data set [5]; in the data set on Pseudomonas aeruginosa [6]) were 1 µM (≈ 1.61 µg/mL) and 12 µM (≈ 19.3 µg/mL), respectively. This molecule gave a concentration for 50% haemolysis (HC50) at 1 h in [7] of 160 µM.
In the case of `O=C(O)c1cn(C2CC2)c2cc(N3CCNCC3)c(F)cc2c1=O` [CIPROFLOXACIN], the result (in data set [1]; in the data set with Pseudomonas aeruginosa [9]) was Active. In addition, the MIC in data set [12] stood at 0.12 µg/mL (≈ 0.362 µM); against Pseudomonas aeruginosa [13], 0.09 µg/mL (≈ 0.272 µM); in the data set on Pseudomonas aeruginosa [14], 0.09 µg/mL (≈ 0.272 µM); in [15], 0.12 µg/mL (≈ 0.362 µM); in the data set on Pseudomonas aeruginosa [16], 0.09 µg/mL (≈ 0.272 µM). Further, the inhibition entry (in the data set with Pseudomonas aeruginosa [10]; in [11] (RP62A)) was “Active” throughout. The Activity with Pseudomonas aeruginosa [3] is given as 50%; in data set [8], 30%.
For `CCCCCCCCCCCCCCCC(=O)N(CC(N)=O)C[C@H](CCCCN)NC(=O)CN1C[C@H](Cc2ccccc2)NC(=O)CN(C(=O)CCCN)C[C@H](Cc2ccccc2)NC(=O)CN(C(=O)CCCN)C[C@H](Cc2ccccc2)NC(=O)CN(C(=O)CCc2ccccc2)C[C@H](CCCCN)NC(=O)CCC1=O`, the figures for the MIC (in data set [5]; against Pseudomonas aeruginosa [6]) were 0.6 µM (≈ 0.932 µg/mL) and 6 µM (≈ 9.32 µg/mL), respectively. In data set [7], this molecule gave an HC50 at 1 h of 129 µM.
With `CCCCCCCCCCCCCCCC(=O)N(CC(N)=O)C[C@H](CCCCN)NC(=O)CN1C[C@H](Cc2ccccc2)NC(=O)CN(C(=O)CCc2ccccc2)C[C@H](CCCCN)NC(=O)CN(C(=O)CCc2ccccc2)C[C@H](CCCCN)NC(=O)CN(C(=O)CCc2ccccc2)C[C@H](CCCCN)NC(=O)CN(C(=O)CCc2ccccc2)C[C@H](CCCCN)NC(=O)CCC1=O`, the result (in data set [1]; with Pseudomonas aeruginosa [9]) was Active. In addition, the “inhibition (INH)” value is 60% in the data set with Pseudomonas aeruginosa [10] and 40% in data set [11]. For the same molecule, the Activity with Pseudomonas aeruginosa [3] is listed as 50%; in [8] it was 10%. For the same molecule, the MIC (in data set [5]; in the data set with Pseudomonas aeruginosa [6]) was 13 µM (≈ 24.9 µg/mL) in each case. This molecule also showed an HC50 at 1 h in [7] of 130 µM.
`CCCCCCCCCCCCCCCC(=O)N(CC(N)=O)C[C@H](CCCCN)NC(=O)CN1C[C@H](Cc2ccccc2)NC(=O)CN(C(=O)CCc2ccccc2)C[C@H](CCCCN)NC(=O)CN(C(=O)CCCN)C[C@H](Cc2ccccc2)NC(=O)CN(C(=O)CCc2ccccc2)C[C@H](CCCCN)NC(=O)CCC1=O`: the result (in data set [1]; in the data set on Pseudomonas aeruginosa [9]) was Active. In addition, the “inhibition (INH)” value came out at 60% in the data set on Pseudomonas aeruginosa [10] and 40% in data set [11]. Further, the Activity in the data set with Pseudomonas aeruginosa [3] was determined as 50%; in [8], 10%. The values for the MIC (in data set [5]; in the data set with Pseudomonas aeruginosa [6]) were 3 µM (≈ 4.74 µg/mL) and 6 µM (≈ 9.49 µg/mL), respectively. The molecule also gave a 50% haemolytic concentration (HC50) at 1 h in data set [7] of 114 µM.
For the molecule `CCCCCCCCCCCCCCCC(=O)N(CC(N)=O)C[C@H](CCCCN)NC(=O)CN1C[C@H](Cc2ccccc2)NC(=O)CN(C(=O)CCc2ccccc2)C[C@H](CCCCN)NC(=O)CN(C(=O)CCCN)C[C@H](Cc2ccccc2)NC(=O)CN(C(=O)CCCN)C[C@H](Cc2ccccc2)NC(=O)CN(C(=O)CCc2ccccc2)C[C@H](CCCCN)NC(=O)CCC1=O`, the “inhibition (INH)” value in the data set with Pseudomonas aeruginosa [10] is recorded as 60%; in data set [11] it was 40%. The Activity in the data set on Pseudomonas aeruginosa [3] was found to be 50%; in [8], 10%. The MIC stood at 3 µM (≈ 5.57 µg/mL) in [5] and 14 µM (≈ 26 µg/mL) in the data set with Pseudomonas aeruginosa [6]. For the same molecule, in [7], the concentration for 50% haemolysis (HC50) at 1 h was determined as 82 µM.
